Experimental data from patent US5552405A, “Substituted pyrrolidine derivatives as HIV protease inhibitors” (Bio-Mega/Boehringer Ingelheim Research, Inc., priority 1995, dated 1996).

Key:
HIV protease = target: T1, HIV protease (Human immunodeficiency virus type 1 group M subtype B, UniProt P04585); test: Recombinant HIV Protease HPLC Assay; assay type: biochemical; details: recombinant HIV protease expressed in E. coli; substrate VSFNFPQITL-NH2; pH 5.5; 37°, 30 min; read-out: IC50, concentration of the test compound which causes a 50% inhibition of the HIV-protease
T1 construct: HIV protease was expressed in E. coli; made in house; host or cells: E. coli
Excerpt: The procedure is based on the capacity of the test compound to inhibit enzymatic cleavage by HIV protease of a decapeptide (the substratel having an amino acid sequence which includes a known HIV protease cleavage site of a HIV polyprotein; see H. G. Krausslich et al., Proc. Natl. Acad. Sci. U.S.A., 86, 807 (1989). Details of this assay together with the results obtained for exemplified compounds of formula 1 are described in the examples hereinafter.
Enzyme: HIV protease was expressed in E. coli {construct pBRT1 prt^+, see W. G. Farmerie et al., Science, 236, 305 (1987)}, according to the following protocol: Unless stated otherwise, all solutions are aqueous solutions.
E. coli cells containing the pBRT1 prt^+ plasmid were used to inoculate a seed culture media composed of Luria-Bertani Broth containing 100 μg/mL of ampicillin. Flasks were incubated at 37° under agitation for 17 h. Production flasks containing sterile M9 broth, supplemented with 100 μg/mL of ampicillin, were inoculated at a level of 1% (v/v) using the seed culture described above. Total volume in each production flask was 500 mL in a 2 L Erlenmeyer flask. Flasks were incubated at 37° under agitation until a cell concentration corresponding to an optical density (λ=540 μm) of 0.6 was reached (no dilution). This time span was routinely 3-4 h. Flasks were then supplemented with 5 mM isopropylthiogalactoside (IPTG, Research Organics, Cleveland, Ohio, USA) and incubation was continued until the cell concentration reached an optical density of 0.2 at 16-fold dilution. Flasks were then supplemented with 1 mM phenylmethylsulfonyl fluoride (PMSF) and rapidly chilled to 4°. The bacterial cells were recovered by centrifugation at 4°. The wet pellet was stored at -70°.
All steps below were perfomed at 4° unless otherwise indicated. Thawed cells were mixed with buffer A {50 mM tris(hydroxymethyl)aminoethane HCl (Tris-HCl, pH 7.4); 0.6 mM ethylenediaminetetraacetic acid (EDTA); 0.375M NaCl, 0.2% Nonidet P-40® (BDH Chemicals Ltd., Poole, UK); 1 mM PMSF}, at a ratio of one part cells to nine parts buffer A. Diatomaceous earth (Celite 545® John Manville, Lompoc, Calif. U.S.A.) was added at a ratio of two parts to one part of wet cell weight. The resulting slurry was homogenized at high speed (ca. 20,000 rpm) on a Waring® industrial blender for 8×15 sec. pulses. Cell debris/Celite® was collected by centrifugation and the resulting pellet was extracted with 4.5 parts of buffer A to one part wet solids using the homogenization procedure described above. Supernatants from both homogenization steps were combined and soluble protein was precipitated by the addition of solid (NH4)2 SO4 to yield a final concentration of 75% saturation. This mixture was agitated for 60 min and the precipitate was recovered by centrifugation. The resulting pellet was suspended in buffer B {50 mM Tris-HCl, pH 8; 30 mM NaCl; 1 mM DL-dithiothreitol (DTT); 1 mM EDTA; mM PMSF; 10% glycerol}, and dialyzed for 18 h against the same buffer.
An aliquot of the dialyzed extract containing 150 mg of the protein was loaded onto a Sephadex A25® anion exchange column (Pharmacia, Uppsala, Sweden) with bed dimensions of 70 cm length and 2.5 cm diameter. The sample was eluted isocratically with buffer B at a linear flow rate of 10 cm/h. Fractions containing HIV protease activity (see below for assay description) were combined, and soluble protein was precipitated by the addition of saturated aqueous (NH4)2 SO4 to yield a total (NH4)2 SO4 concentration of 85% saturation. Precipitated protein was removed by centrifugation and the resulting pellet was dissolved in buffer C {50 mM 2-(4-morpholino)ethanesulfonic acid (MES), pH 5.5; 150 mM NaCl; 1 mM DTT; 1 mM EDTA; 10% glycerol}. This preparation was dialyzed for 18 h against buffer C, and then frozen at -70°. All crude extracts were purified by chromatography in aliquots containing 150 mg of protein in the same manner as described above. […]

[1] = test system: HIV (H9/HTLV-IIIB) in HTLV-I transformed C8166 cells; test: plaque assay, inhibition of HIV (H9/HTLV-IIIB) syncytia formation in C8166 cells; assay type: cell-based; details: Human immunodeficiency virus 1, fifty times TCID50, 37°, 72 h, read-out: EC50, concentration of the test compound which causes a 50% inhibition of syncytia formation
Excerpt: Typical of such procedures are those described by S. Harada and N. Yamamoto, Jpn. J. Cancer Res. (Gann), 76, 432 (1985), and S. Harada et al., Science, 229, 563 (1985). An assay based on the latter procedures is described in the examples hereinafter.
The following protocol, used for screening antiviral effects of the compounds of formula 1, is adapted from a plaque assay utilizing HTLV-I transformed cells, previously reported by Harada et al., supra. HTLV-I transformed cells are used because of the rapidity with which HIV will replicate in the cells.
1. The test compound is dissolved in dimethylsulfoxide to a concentration of 5 mg/mL. The resultant solution can be stored at 4° until use.
2. The resultant solution is diluted in RPMI 1640 (Gibco Laboratories, St. Lawrence, Mass., USA) to four times (4×) the final concentration which is to be tested. Once diluted in RPMI 1640, the solution is used in the cell culture assay within 4 h.
3. The 4×solution (50 μL) is added to triplicate wells of a 96 well flat bottomed microtiter plate. RPMI (50 μL) also is added to control wells.
4. C8166 cells (5×10^4) in […] of HEPES-buffered RPMI 1640 (pH=7.2), 10% heat inactivated fetal calf serum (FCS), […] gentamicin (complete media) are added to all wells.
5. Fifty times TCID50 of H9/HTLV-IIIB stock (stored in liquid nitrogen as cell culture supernatant in 50% FCS) in 100 μL of complete media is added to all wells. Infectious titer of virus stocks are as previously determined by end point dilution on C8166 cells. Titer of stocks are stable for 6-12 months when stored at -193°.
6. Microtiter plates are then placed on level shelves of a 37°, 5% CO2 humidified incubator for 72 h.
7. Plates are then removed and centers of syncytia are counted in each well by low power phase contrast light microscopy. […] Control wells should have between 25 and 75 centers of syncytia per well.
8. Percent inhibition of syncytia formation is calculated by the formula: [formula]
The concentration of the test compound which causes a 50% inhibition of syncytia formation, i.e. the EC50, is determined by using the technique of serial dilution of the working solution at step 3 and graphically plotting the observed percent inhibition of syncytia formation against the various concentrations of the test compound.

## CC(C)[C@H](NC(=O)OCc1ccccc1)C(=O)N[C@@H](Cc1ccccc1)[C@H](O)CN1C[C@H](OCc2ccccc2)C[C@H]1C(=O)NC(C)(C)C [Entry 2]
HIV protease
  IC50: 0.016 µM

## CC(C)[C@H](NC(=O)c1ccc2ccccc2n1)C(=O)N[C@@H](Cc1ccccc1)[C@H](O)CN1C[C@H](Sc2ncccn2)C[C@H]1C(=O)NC(C)(C)C [Entry 10]
HIV protease
  IC50: 0.0047 µM

## Cc1cccc(C)c1OCC(=O)N[C@@H](Cc1ccccc1)[C@H](O)CN1C[C@H](Sc2ncccn2)C[C@H]1C(=O)NC(C)(C)C [Entry 13]
HIV protease
  IC50: 0.0046 µM

## Cc1cccc(C)c1OCC(=O)N[C@@H](Cc1ccccc1)[C@H](O)CN1C[C@H](SCc2cccnc2)C[C@H]1C(=O)NC(C)(C)C [Entry 14]
HIV protease
  IC50: 0.043 µM

## CC(C)(C)NC(=O)[C@@H]1C[C@@H](OCc2ccccc2)CN1C[C@@H](O)[C@H](Cc1ccccc1)NC(=O)[C@H](CC(N)=O)NC(=O)OCc1ccccc1 [Table I Entry 3, 4(R)-Benzyloxy-1-{3(S)-{{N-(benzyloxycarbonyl)asparaginyl}amino}-2(R)-hydroxy-4-phenylbutyl}-N-tert-butylpyrrolidine-2(S)-carboxamide]
[1]
  EC50: 0.6 µM
HIV protease
  IC50: 0.039 µM

## CC(C)(C)NC(=O)[C@@H]1C[C@H](OCc2ccccc2)CN1C[C@@H](O)[C@H](Cc1ccccc1)NC(=O)[C@H](CC(N)=O)NC(=O)OCc1ccccc1 [Table I Entry 4, 4(S)-Benzyloxy-1-{3(S)-{{N-(benzyloxycarbonyl)asparaginyl}amino}-2(R)-hydroxy-4-phenylbutyl}-N-tert-butylpyrrolidine-2(S)-carboxamide]
HIV protease
  IC50: 0.3 µM

## CC(C)CO[C@H]1C[C@@H](C(=O)NC(C)(C)C)N(C[C@@H](O)[C@H](Cc2ccccc2)NC(=O)[C@@H](NC(=O)OCc2ccccc2)C(C)C)C1 [Table I Entry 5, 1-{3(S)-{{N-(benzyloxycarbonyl)valyl}amino}-2(R)-hydroxy-4-phenylbutyl}-N-tert-butyl-4(S)-(2-methylpropyloxy)pyrrolidine-2(S)-carboxamide]
HIV protease
  IC50: 0.745 µM

## CC(C)CO[C@@H]1C[C@@H](C(=O)NC(C)(C)C)N(C[C@@H](O)[C@H](Cc2ccccc2)NC(=O)[C@@H](NC(=O)OCc2ccccc2)C(C)C)C1 [Table I Entry 6, 1-{3(S)-{{N-(benzyloxycarbonyl)valyl}amino}-2(R)-hydroxy-4-phenylbutyl}-N-tert-butyl-4(R)-(2-methylpropyloxy)pyrrolidine-2(S)-carboxamide]
[1]
  EC50: 3 µM
HIV protease
  IC50: 0.18 µM

## CC(C)[C@H](NC(=O)OCc1ccccc1)C(=O)N[C@@H](Cc1ccccc1)[C@H](O)CN1C[C@H](OCc2ccccc2)C[C@H]1C(=O)NC1CC1 [Table I Entry 7, 4(R)-Benzyloxy-1-{3(S)-{{N-(benzyloxycarbonyl)valyl}amino}-2(R)-hydroxy-4-phenylbutyl}-N-cyclopropylpyrrolidine-2(S)-carboxamide]
[1]
  EC50: 0.9 µM
HIV protease
  IC50: 0.1 µM

## CC(C)(C)NC(=O)[C@@H]1C[C@@H](Cc2ccccc2)CN1C[C@@H](O)[C@H](Cc1ccccc1)NC(=O)[C@H](CC(N)=O)NC(=O)OCc1ccccc1 [Table I Entry 8, 4(R)-Benzyl-1-{3(S)-{{N-(benzyloxycarbonyl)asparaginyl}amino}-2(R)-hydroxy-4-phenylbutyl}-N-tert-butylpyrrolidine-2(S)-carboxamide]
[1]
  EC50: 0.7 µM
HIV protease
  IC50: 0.048 µM

## CC(C)(C)NC(=O)[C@@H]1C[C@H](Cc2ccccc2)CN1C[C@@H](O)[C@H](Cc1ccccc1)NC(=O)[C@H](CC(N)=O)NC(=O)OCc1ccccc1 [Table I Entry 9, 4(S)-Benzyl-1-{3(S)-{{N-(benzyloxycarbonyl)asparaginyl}amino}-2(R)-hydroxy-4-phenylbutyl}-N-tert-butylpyrrolidine-2(S)-carboxamide]
[1]
  EC50: 4 µM
HIV protease
  IC50: 0.78 µM

## CC(C)[C@H](NC(=O)c1ccc2ccccc2n1)C(=O)N[C@@H](Cc1ccccc1)[C@H](O)CN1C[C@H](Sc2ncccn2)C[C@H]1C(=O)NC(C)(C)C [Table I Entry 10, N-tert-butyl-1-{2(R)-hydroxy-4-phenyl-3(S)-{{N-(2-quinolinylcarbonyl)valyl}amino}butyl}-4(R)-(2-pyrimidinylthio)pyrrolidine-2(S)-carboxamide]
[1]
  EC50: 0.25 µM

## CC(C)[C@H](NC(=O)c1ccc2ccccc2n1)C(=O)N[C@@H](Cc1ccccc1)[C@H](O)CN1C[C@H](SCc2cccnc2)C[C@H]1C(=O)NC(C)(C)C [Table I Entry 11, N-tert-butyl-1-{2(R)-hydroxy-4-phenyl-3(S)-{{N-(2-quinolinylcarbonyl)valyl}amino}butyl}-4(R)-{(3-pyridinylmethyl)thio}pyrrolidine-2(S)-carboxamide]
[1]
  EC50: 0.48 µM
HIV protease
  IC50: 0.012 µM

## Cc1cc(O[C@@H]2C[C@@H](C(=O)NC(C)(C)C)N(C[C@@H](O)[C@H](Cc3ccccc3)NC(=O)[C@@H](NC(=O)c3ccc4ccccc4n3)C(C)C)C2)nc(C)n1 [Table I Entry 12, N-tert-butyl-1-{2(R)-hydroxy-4-phenyl-3(S)-{{N-(2-quinolinylcarbonyl)valyl}amino}butyl}-4(R)-{(2,6-dimethyl-4-pyrimidinyl)oxy}pyrrolidine-2(S)-carboxamide]
[1]
  EC50: 0.39 µM
HIV protease
  IC50: 0.0094 µM

## Cc1cccc(C)c1OCC(=O)N[C@@H](Cc1ccccc1)[C@H](O)CN1C[C@H](Sc2ncccn2)C[C@H]1C(=O)NC(C)(C)C [Table I Entry 13, N-tert-butyl-1-{3(S)-{{(2,6-dimethylphenoxy)acetyl}amino}-2(R)-hydroxy-4-phenylbutyl}-4(R)-(2-pyrimidinylthio)pyrrolidine-2(S)-carboxamide]
[1]
  EC50: 0.25 µM
